The values that follow come from patent US20260223852A1, “FUNGICIDAL COMPOSITIONS” (SYNGENTA CROP PROTECTION AG, priority 2023, published 2026).

The subject of assay [1] is Puccinia recondita f. sp. tritici. Briefly: Example B15: Puccinia recondita f. sp. tritici / wheat / leaf disc preventative (brown rust). Format: in vivo. The note with it: 200 ppm, compared to untreated control. The method, then:
Example B15: Puccinia recondita f. Sp. Tritici/Wheat/Leaf Disc Preventative (Brown Rust)
Wheat leaf segments cv. Kanzler are placed on agar in multiwell plates (24-well format) and sprayed with the formulated test compound diluted in water. The leaf disks are inoculated with a spore suspension of the fungus 1 day after application. The inoculated leaf segments are incubated at 19° C. and 75% rh under a light regime of 12 h light/12 h darkness in a climate cabinet and the activity of a compound is assessed as percent disease control compared to untreated when an appropriate level of disease damage appears in untreated check leaf segments (7-9 days after application).

The subject of assay [2] is Mycosphaerella arachidis (Cercospora arachidicola). Kind of assay: Example B13: Mycosphaerella arachidis (Cercospora arachidicola) / liquid culture (early leaf spot). It is filed as cell-based. The note with it: compared to untreated control. The method, then:
Example B13: Mycosphaerella arachidis (Cercospora arachidicola)/Liquid Culture (Early Leaf Spot)
(§1) Conidia of the fungus from cryogenic storage are directly mixed into nutrient broth (PDB potato dextrose broth). After placing a (DMSO) solution of test compound into a microtiter plate (96-well format), the nutrient broth containing the fungal spores is added. The test plates are incubated at 24° C. and the inhibition of growth is determined photometrically 4-5 days after application.

A further assay deals with Pyrenophora teres. Briefly: Example B17: Pyrenophora teres / barley / leaf disc preventative (net blotch). Format: in vivo. The note with it: foliar, compared to untreated control. The method, then: Example B17: Pyrenophora teres/Barley/Leaf Disc Preventative (Net Blotch)
Barley leaf segments cv. Hasso are placed on agar in a multiwell plate (24-well format) and sprayed with the formulated test compound diluted in water. The leaf segments are inoculated with a spore suspension of the fungus 2 days after application. The inoculated leaf segments are incubated at 20° C. and 65% rh under a light regime of 12 h light/12 h darkness in a climate cabinet and the activity of a compound is assessed as disease control compared to untreated when an appropriate level of disease damage appears in untreated check leaf segments (5-7 days after application).

The test system of a further assay is Fusarium culmorum. Briefly: microbe, parasite or virus in culture. It is filed as cell-based. The note with it: read-out: control of Fusarium culmorum.
The subject of assay [3] is Monographella nivalis (Microdochium nivale). Kind of assay: Example B12: Monographella nivalis (Microdochium nivale) / liquid culture (foot rot cereals). It is filed as cell-based. As to conditions: compared to untreated control. The method, then: Example B12: Monographella Nivalis (Microdochium Nivale)/Liquid Culture (Foot Rot Cereals)
as §1

For assay [4], the system named is Glomerella lagenarium (Colletotrichum lagenarium). Briefly: Example B5: Glomerella lagenarium (Colletotrichum lagenarium) / liquid culture (anthracnose). It is filed as cell-based. As to conditions: Colletotrichum orbiculare, compared to untreated control. The method, then: Example B5: Glomerella Lagenarium (Colletotrichum Lagenarium)/Liquid Culture (Anthracnose)
Conidia of the fungus from cryogenic storage are directly mixed into nutrient broth (PDB potato dextrose broth). After placing a (DMSO) solution of test compound into a microtiter plate (96-well format), the nutrient broth containing the fungal spores is added. The test plates are incubated at 24° C. and the inhibition of growth is measured photometrically 3-4 days after application.

Assay [5] relates to Blumeria graminis f. sp. tritici (Erysiphe graminis f. sp. tritici). Kind of assay: Example B7: Blumeria graminis f. sp. tritici / wheat / leaf disc preventative (powdery mildew on wheat). It is filed as in vivo. As to conditions: foliar, compared to untreated control. The method, then:
Example B7: Blumeria Graminis f. Sp. Tritici (Erysiphe graminis f. Sp. Tritici)/Wheat/Leaf Disc Preventative (Powdery Mildew on Wheat)
Wheat leaf segments cv. Kanzler are placed on agar in a multiwell plate (24-well format) and sprayed with the formulated test compound diluted in water. The leaf disks are inoculated by shaking powdery mildew infected plants above the test plates 1 day after application. The inoculated leaf disks are incubated at 20° C. and 60% rh under a light regime of 24 h darkness followed by 12 h light/12 h darkness in a climate chamber and the activity of a compound is assessed as percent disease control compared to untreated when an appropriate level of disease damage appears on untreated check leaf segments (6-8 days after application).

The subject of assay [6] is Mycosphaerella graminicola (Septoria tritici). Briefly: Example B19: Mycosphaerella graminicola (Septoria tritici) / liquid culture (Septoria blotch). It is filed as cell-based. As to conditions: Zymoseptoria tritici, compared to untreated control. The method, then: Example B19: Mycosphaerella graminicola (Septoria tritici)/Liquid Culture (Septoria Blotch)
as §1

Assay [7] deals with Botryotinia fuckeliana (Botrytis cinerea). Briefly: Example B2: Botryotinia fuckeliana (Botrytis cinerea) / liquid culture (gray mould). It is filed as cell-based. The note with it: compared to untreated control. The method, then: Example B2: Botryotinia fuckeliana (Botrytis cinerea)/Liquid Culture (Gray Mould)
Conidia of the fungus from cryogenic storage are directly mixed into nutrient broth (Vogels broth). After placing a (DMSO) solution of test compound into a microtiter plate (96-well format), the nutrient broth containing the fungal spores is added. The test plates are incubated at 24° C. and the inhibition of growth is determined photometrically 3-4 days after application.

For `Cn1cc(C(C)(CNC(=O)c2cc(-c3ccc(F)cc3F)on2)c2cccc(Cl)n2)cn1` (centres unmarked) [X.01, N-[2-(6-chloro-2-pyridyl)-2-(1-methylpyrazol-4-yl)propyl]-5-(2,4-difluorophenyl)isoxazole-3-carboxamide], in assay [1], the “control of Puccinia recondita f. sp. tritici” value is “at least 80%”.
The term pest or weed control denotes the degree to which the test organism was suppressed or injured, in per cent. For the compound `Cn1cc(C(C)(CNC(=O)c2nnc(-c3ncc(F)cc3F)s2)c2cccc(Cl)n2)cn1` (centres unmarked) [X.15, N-[2-(6-chloro-2-pyridyl)-2-(1-methylpyrazol-4-yl)propyl]-5-(3,5-difluoro-2-pyridyl)-1,3,4-thiadiazole-2-carboxamide], the inhibition of growth at 20 ppm (in assay [2]; in the assay with Fusarium culmorum; in assay [3]; in assay [4]; in [6]; in assay [7]) was no less than 80% in each case. Besides, the pest or weed control at 200 ppm (in the assay with Pyrenophora teres; in assay [5]) was no less than 80% in each case.
In the case of `Cn1cc(C(C)(CNC(=O)c2cc(-c3ncc(F)cc3F)on2)c2cccc(Cl)n2)cn1` (centres unmarked) [X.11, N-[2-(6-chloro-2-pyridyl)-2-(1-methylpyrazol-4-yl)propyl]-5-(3,5-difluoro-2-pyridyl)isoxazole-3-carboxamide], the inhibition of growth at 20 ppm (in [2]; in the assay with Fusarium culmorum; in [3]; in assay [4]; in assay [6]; in [7]) was no less than 80% in each case. In assay [5], the pest or weed control at 200 ppm is no less than 80%.
Regarding `Cn1cc(C(C)(CNC(=O)c2nnc(-c3ncc(F)cc3F)s2)c2cccc(C#N)n2)cn1` (centres unmarked) [X.14, N-[2-(6-cyano-2-pyridyl)-2-(1-methylpyrazol-4-yl)propyl]-5-(3,5-difluoro-2-pyridyl)-1,3,4-thiadiazole-2-carboxamide], the pest or weed control at 200 ppm (with Pyrenophora teres; in [5]) was no less than 80% each time. Further, the inhibition of growth at 20 ppm in assay [4], in assay [6] and in assay [7] was no less than 80% throughout.
Turning to `Cn1cc(C(C)(CNC(=O)c2nnc(-c3ccc(F)nc3F)s2)c2cccc(Cl)n2)cn1` (centres unmarked) [X.16, N-[2-(6-chloro-2-pyridyl)-2-(1-methylpyrazol-4-yl)propyl]-5-(2,6-difluoro-3-pyridyl)-1,3,4-thiadiazole-2-carboxamide], the inhibition of growth at 20 ppm in assay [2], in assay [3], in assay [4], in assay [6] and in assay [7] was no less than 80% throughout.
